Measurements published in patent publication US4698330A, “Somnogenic compositions and method of use” (President & Fellows of Harvard College, priority 1983, dated 1987).

Experiments:
[1] = system: rabbits; assay: Intraventricular infusion in rabbits, EEG slow-wave sleep (SWS); details: for % SWS, 6 hr post infusion, Expt: intraventricular, hr 2-6 after infusion, mean ± SEM or range
Experimental: Calibrated glass bead thermistors (Fenwall; 1.2-mm outside diameter, 50 omega/°C.) were implanted through burr holes in frontal bone: the thermistor leads were buried in a mound of dental cement that also insulated the screw electrodes and supported a 9-pin miniature electrical connector. In some experiments, the rectal temperatures were measured at intervals by using a calibrated thermistor probe; temperatures estimated from the implanted brain thermistors were generally within 0.3° C. of simultaneously recorded rectal temperature.
New Zealand rabbits (male, 3-5 kg) or domestic cats were adapted to the infusion cages in a temperature-controlled room (21°-2° C.) on a 12:12 light/dark cycle. Intraventricular infusions or systemic injections were carried out between 0800 and 1000 hr and were followed by 6 or more hr of recording without disturbing the animals.
EEG, electro-oculogram, and bodily movements were recorded on Grass polygraphs. The amplitude of EEG slow waves was recorded as the rms-rectified output from a 0.5- to 4-Hz bandpass filter (Bunco Electronics, Sharon, (T); the rms component was integrated and the integral was printed on tape every 2 min, thus providing an objective measure of the product of amplitude and duration of EEG slow waves. Each record was also analyzed visually for duration of SWS in rabbits and for both SWS and REM sleep in cats. The infusion and recording systems and examples of analysis of records are described in 1, 12, 15.

[2] = system: rabbits; assay: Antipyretic (acetaminophen, indomethacin, aspirin) with AcMur-ala-igln in rabbits, SWS and temperature; format: in vivo; details: for suppression of the pyrogenic (febrile) effects of AcMur-ala-igln by the antipyretic: AcMur-ala-igln delivered intravenously in rabbits
Experimental: Acetaminophen (Sigma) was dissolved in sterile pyrogen-free saline.
For this reason, the less toxic acetaminophen was used to suppress the pyrogenic effects of AcMur-ala-igln.
In FIG. 5, the symbols mean the following: , AAP alone; , AAP followed by 120 μg of AcMur-ala-igln intravanously at time zero. Each value is mean ±SEM of six assays in six rabbits. In A, the average of the individual increases (ΔT values) in rectal temperature induced by AcMur-ala-igln together with AAP is compared with that induced by AAP alone in each of six rabbits.

[3] = system: rabbits; assay: Toxic reactions to indomethacin alone in rabbits; format: in vivo, rabbit; details: doses as low as 1 mg/kg
Experimental: (§1) The time course of the pyrogenic response to AcMur-ala-igln was sometimes quite different from that of the somnogenic response and, in some animals, the natural muramyl peptide isolated from urine induced substantial excess SWS without significant alteration of temperature. […] In preliminary experiments, indomethacin was used as an antipyretic because Parant et al. (7) had shown that this drug (in doses of 40 mg/kg) was effective in blocking the pyrogenic response to intravanously administered AcMur-ala-igln. […] For this reason, the less toxic acetaminophen was used to suppress the pyrogenic effects of AcMur-ala-igln. The results for six rabbits injected intravanously with AcMur-ala-igln at 120 μg/kg 30 min after intravanous injection of acetaminophen at 10 mg/kg are summarized in FIG. 5. It is clear that, under these conditions a substantial somnogenic effect was obtained for 3 to 4 hr with only a weak associated febrile response. In some animals, there was no significant increase in temperature during the sleep response.

[4] = system: cats; assay: Toxic reactions to indomethacin alone in cats; format: in vivo, cat; details: doses as low as 1 mg/kg
Experimental: as §1

Structure (SMILES): CCCCOC(=O)[C@@H](CCC(N)=O)NC(=O)[C@H](C)NC(=O)[C@@H](C)O[C@H]1[C@H](O)[C@@H](CO)OC(O)[C@@H]1NC(C)=O (stereo partly drawn) [NAc--Mur--L-ala-D-gln-n-Bu ester]
- % SWS, 6 hr post infusion, Expt ([1]; dose 0.25 nmol): 41-47%

Structure (SMILES): CC(=O)N[C@H]1C(O)O[C@H](CO)[C@@H](O)[C@@H]1O[C@H](C)C(=O)N[C@@H](C)C(=O)N[C@H](CCC(=O)O)C(=O)O (stereo partly drawn) [NAc--Mur--L-ala-D-glu, NAc-Mur-L-ala-D-glu]
- % SWS, 6 hr post infusion, Expt ([1]; dose 0.2 nmol): 43 ± 3%
- % SWS, 6 hr post infusion, Expt ([1]; dose 2.0 nmol): 51 ± 3%

Structure (SMILES): CC(=O)N[C@H]1C(O)O[C@H](CO)[C@@H](O)[C@@H]1O[C@H](C)C(=O)O (some centres unmarked) [N-acetylmuramic acid, reference compound]
- somnogenic effect ([1]; summary of Table 2, intraventricular, rabbits): no effect

Structure (SMILES): CC(=O)Oc1ccccc1C(=O)O [aspirin, acetyl salicylic acid]
- suppression of the pyrogenic (febrile) effects of AcMur-ala-igln by the antipyretic [2]: like suppression of the febrile response

Structure (SMILES): COC(=O)CC[C@@H](NC(=O)[C@H](C)NC(=O)[C@@H](C)O[C@H]1[C@H](O)[C@@H](CO)OC(O)[C@@H]1NC(C)=O)C(N)=O (stereo partly drawn) [NAc--Mur--L-ala-D-igln-gamma-OMe, NAc-Mur-L-ala-D-igln-gamma-OMe]
- % SWS, 6 hr post infusion, Expt ([1]; dose 2.0 nmol): 56 ± 7%

Structure (SMILES): CC(=O)NC1C(OC2C(CO)OC(O)C(NC(C)=O)C2OC(C)C(=O)NC(C)C(=O)NC(CCC(=O)O)C(N)=O)OC(CO)C(O)C1O (centres unmarked) [Nac--glc-1,4-MDP, NAc-glucosaminyl-(1,4)-MDP]
- % SWS, 6 hr post infusion, Expt ([1]; dose 0.2 nmol): 60 ± 5%

Structure (SMILES): CC(=O)N[C@H]1C(O)O[C@H](CO)[C@@H](O)[C@@H]1O[C@H](C)C(=O)N[C@@H](C)C(=O)N[C@H](CCC(N)=O)C(N)=O (stereo partly drawn) [NAc--Mur--L-ala-D-glu(NH2)--NH2]
- % SWS, 6 hr post infusion, Expt ([1]; dose 2.0 nmol): 43 ± 1%

Structure (SMILES): CC(=O)N[C@H]1C(O)O[C@H](CO)[C@@H](O)[C@@H]1O[C@H](C)C(=O)N[C@@H](C)C(=O)N[C@@H](CCC(=O)O)C(N)=O (stereo partly drawn) [NAc--Mur--L-ala-L-igln]
- % SWS, 6 hr post infusion, Expt ([1]; dose 0.2 nmol): 38 ± 4%

Structure (SMILES): CC(=O)Nc1ccc(O)cc1 [acetaminophen]
- effects on sleep or rectal temperature ([2]; AAP alone): no significant effects
- hourly % SWS (mean ±SEM) ([2]; AAP alone, 10 mg/kg intravenous, six rabbits, FIG. 5): 41±3%
- suppression of the pyrogenic (febrile) effects of AcMur-ala-igln by the antipyretic [2]: completely or partially suppressed

Structure (SMILES): COC(=O)[C@@H](CCC(N)=O)NC(=O)[C@H](C)NC(=O)[C@@H](C)O[C@H]1[C@H](O)[C@@H](CO)OC(O)[C@@H]1NC(C)=O (stereo partly drawn) [NAc--Mur--L-ala-D-gln-alpha OMe]
- % SWS, 6 hr post infusion, Expt ([1]; dose 0.5 nmol): 31-45%

Structure (SMILES): COC(=O)CC[C@@H](NC(=O)[C@H](C)NC(=O)C(C)O[C@H]1[C@H](O)[C@@H](CO)O[C@H](O)[C@@H]1NC(C)=O)C(=O)OC (stereo partly drawn) [NAc--Mur--L-ala-D-glu(OMe)--OMe, NAc-Mur-L-ala-D-glu(OMe)-OMe]
- % SWS, 6 hr post infusion, Expt ([1]; dose 2.0 nmol): 66 ± 4%

Structure (SMILES): CC(=O)N[C@H]1C(O)O[C@H](CO)[C@@H](O)[C@@H]1O[C@H](C)C(=O)N(C)[C@@H](C)C(=O)N[C@H](CCC(=O)O)C(N)=O (stereo partly drawn) [NAc--Mur--(N--Me)--L-ala-D-igln]
- % SWS, 6 hr post infusion, Expt ([1]; dose 0.2 nmol): 32-47%

Structure (SMILES): COC(=O)[C@@H](CCC(=O)O)NC(=O)[C@H](C)NC(=O)[C@@H](C)O[C@H]1[C@H](O)[C@@H](CO)OC(O)[C@@H]1NC(C)=O (stereo partly drawn) [NAc--Mur--L-ala-D-glu-alpha-OMe, NAc-Mur-L-ala-D-glu-alpha-OMe]
- % SWS, 6 hr post infusion, Expt ([1]; dose 0.2 nmol): 47-61%
- % SWS, 6 hr post infusion, Expt ([1]; dose 2.0 nmol): 72 ± 4%

Structure (SMILES): CC(=O)NC1C(O)OC(CO)C(O)C1OC(C)C(=O)NC(C)C(=O)NC(CCC(=O)O)C(N)=O [NAc--Mur--D-ala-D-igln]
- % SWS, 6 hr post infusion, Expt ([1]; dose 0.5 nmol): 35 ± 2%
- % SWS, 6 hr post infusion, Expt ([1]; dose 1.0 nmol): 35 ± 2%

Structure (SMILES): CC(=O)N[C@H]1C(O)O[C@H](CO)[C@@H](O)[C@@H]1O[C@H](C)C(=O)N[C@@H](C)C(=O)N[C@H](CCC(=O)N[C@@H](CCC[C@@H](N)C(=O)O)C(=O)N[C@H](C)C(=O)N[C@H](C)C(=O)O)C(=O)O (stereo partly drawn) [NAc-Mur-L-ala-gamma-D-glu-m-DAP-D-ala-D-ala]
- % SWS, 6 hr post infusion, Expt ([1]; dose 0.15 nmol): 46 ± 3%
- % SWS, 6 hr post infusion, Expt ([1]; dose 0.2 nmol): 65 ± 5%

Structure (SMILES): CC(=O)N[C@H]1C(O)O[C@H](CO)[C@@H](O)[C@@H]1O[C@H](C)C(=O)N[C@@H](C)C(=O)N[C@H](CCC(N)=O)C(=O)O (stereo partly drawn) [NAc--Mur--L-ala-D-gln, NAc-Mur-L-ala-D-gln]
- % SWS, 6 hr post infusion, Expt ([1]; dose 2.0 nmol): 45 ± 1%
- % SWS, 6 hr post infusion, Expt ([1]; dose 20.0 nmol): 58-66%

Structure (SMILES): COc1ccc2c(c1)c(CC(=O)O)c(C)n2C(=O)c1ccc(Cl)cc1 [indomethacin]
- blocking of the pyrogenic or somnogenic effects of intraventricularly administered AcMur-ala-igln ([2]; indomethacin: 10 out of 10 trials in six rabbits, acetaminophen: two rabbits): did not block
- toxic reactions (diarrhea, lethargy, inhibition of normal sleep) [3]: toxic reactions
- toxic reactions (diarrhea, lethargy, inhibition of normal sleep) [4]: toxic reactions
